Source: patent US20230085307A1, “PYRIDAZINONE COMPOUND AND HERBICIDE” (NISSAN CHEMICAL CORPORATION, priority 2019, published 2023)

Experiments:
[1] = tested on: late watergrass; test: Test Example 1: herbicidal activity, application before weed generation under submerged conditions (Table 16, symbol A); type: in vivo, late watergrass (Echinochloa oryzicola); conditions: amount of applied herbicide 320 g/ha
In short: (§1)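 Alluvial soil was flooded to 4 cm depth, weed seeds were sown mixed and 2.5-leaf rice seedlings were transplanted. On sowing day, the compound's emulsion, diluted in water to a set dose, was applied to the water surface. Plants grew at 25–30 °C and were scored 0–5 after three weeks.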

[2] = tested on: Japanese bulrush; test: Test Example 1: herbicidal activity, application before weed generation under submerged conditions (Table 16, symbol B); type: in vivo, Japanese bulrush (Schoenoplectus juncoides); conditions: amount of applied herbicide 320 g/ha
In short: as §1

[3] = tested on: Japanese bulrush; test: Test Example 2: herbicidal activity, application during weed generation under submerged conditions (Table 17, symbol B); type: in vivo, Japanese bulrush (Schoenoplectus juncoides); conditions: for herbicidal effect rating, B: Japanese bulrush: AAH 320 g/ha, application during weed generation, submerged conditions
In short: (§2)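 Alluvial soil in Wagner pots was flooded to 4 cm depth and sown with the three weeds together; pots were kept in a greenhouse at 25° C. to 30° C. At the one to two leaf stage, an emulsion formulation diluted in water to a set rate went onto the water surface; scored three weeks later.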

[4] = tested on: oval-leafed pondweed; test: Test Example 2: herbicidal activity, application during weed generation under submerged conditions (Table 17, symbol C); type: in vivo, oval-leafed pondweed (Monochoria vaginalis); conditions: for herbicidal effect rating, C: oval-leafed pondweed: AAH 320 g/ha, application during weed generation, submerged conditions
In short: as §2

[5] = tested on: green foxtail; test: Test Example 4: herbicidal effect by soil treatment (Table 19, symbol G); type: in vivo, green foxtail (Setaria viridis); conditions: amount of applied herbicide 320 g/ha
In short: (§3)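 Soil-surface application: an emulsion agent diluted with water to the predetermined dose is sprayed uniformly over seeds lying under roughly 1.5 cm of sterilized diluvial soil. Boxes stay in a greenhouse at 25° C. to 30° C. Three weeks later, each species is graded on previously defined criteria.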

[6] = tested on: wild oat; test: Test Example 4: herbicidal effect by soil treatment (Table 19, symbol I); type: in vivo, wild oat (Avena fatua); conditions: amount of applied herbicide 320 g/ha
In short: as §3

[7] = tested on: blackgrass; test: Test Example 4: herbicidal effect by soil treatment (Table 19, symbol J); type: in vivo, blackgrass (Alopecurus myosuroides); conditions: amount of applied herbicide 320 g/ha
In short: as §3

[8] = tested on: Italian ryegrass; test: Test Example 4: herbicidal effect by soil treatment (Table 19, symbol K); type: in vivo, Italian ryegrass (Lolium multiflorum); conditions: amount of applied herbicide 320 g/ha
In short: as §3

[9] = tested on: velvetleaf; test: Test Example 4: herbicidal effect by soil treatment (Table 19, symbol M); type: in vivo, velvetleaf (Abutilon theophrasti); conditions: amount of applied herbicide 320 g/ha
In short: as §3

[10] = tested on: redroot pigweed; test: Test Example 4: herbicidal effect by soil treatment (Table 19, symbol N); type: in vivo, redroot pigweed (Amaranthus retroflexus); conditions: amount of applied herbicide 320 g/ha
In short: as §3

[11] = tested on: lambsquarters; test: Test Example 4: herbicidal effect by soil treatment (Table 19, symbol O); type: in vivo, lambsquarters (Chenopodium album); conditions: amount of applied herbicide 320 g/ha
In short: as §3

[12] = tested on: persian speedwell; test: Test Example 4: herbicidal effect by soil treatment (Table 19, symbol R); type: in vivo, Persian speedwell (Veronica persica); conditions: amount of applied herbicide 320 g/ha
In short: as §3

[13] = tested on: southern crabgrass; test: Test Example 5: herbicidal effect by foliage application, plastic box (Table 20, symbol F); type: in vivo, southern crabgrass (Digitaria ciliaris); conditions: 320 g/ha; for F: southern crabgrass, herbicidal effect grade: three weeks after application
In short: (§4)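 Sow seeds spot-wise in sterilized diluvial soil; cover with ~1.5 cm soil. Grow 14 days in greenhouse, 25° C. to 30° C. Spray foliage with emulsion diluted to predetermined amount. Rate effect after 3 weeks.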

[14] = tested on: green foxtail; test: Test Example 5: herbicidal effect by foliage application, plastic box (Table 20, symbol G); type: in vivo, green foxtail (Setaria viridis); conditions: 320 g/ha; for G: green foxtail, herbicidal effect grade: three weeks after application
In short: as §4

[15] = tested on: barnyard grass; test: Test Example 5: herbicidal effect by foliage application, plastic box (Table 20, symbol H); type: in vivo, barnyard grass (Echinochloa crus-galli); conditions: 320 g/ha; for H: barnyard grass, herbicidal effect grade: three weeks after application
In short: as §4

[16] = tested on: wild oat; test: Test Example 5: herbicidal effect by foliage application, plastic box (Table 20, symbol I); type: in vivo, wild oat (Avena fatua); conditions: 320 g/ha; for I: wild oat, herbicidal effect grade: three weeks after application
In short: as §4

[17] = tested on: blackgrass; test: Test Example 5: herbicidal effect by foliage application, plastic box (Table 20, symbol J); type: in vivo, blackgrass (Alopecurus myosuroides); conditions: 320 g/ha; for J: blackgrass, herbicidal effect grade: three weeks after application
In short: as §4

[18] = tested on: Italian ryegrass; test: Test Example 5: herbicidal effect by foliage application, plastic box (Table 20, symbol K); type: in vivo, Italian ryegrass (Lolium multiflorum); conditions: 320 g/ha; for K: Italian ryegrass, herbicidal effect grade: three weeks after application
In short: as §4

[19] = tested on: windgrass; test: Test Example 5: herbicidal effect by foliage application, plastic box (Table 20, symbol L); type: in vivo, windgrass (Apera spica-venti); conditions: 320 g/ha; for L: windgrass, herbicidal effect grade: three weeks after application
In short: as §4

[20] = tested on: velvetleaf; test: Test Example 5: herbicidal effect by foliage application, plastic box (Table 20, symbol M); type: in vivo, velvetleaf (Abutilon theophrasti); conditions: 320 g/ha; for M: velvetleaf, herbicidal effect grade: three weeks after application
In short: as §4

[21] = tested on: chickweed; test: Test Example 5: herbicidal effect by foliage application, plastic box (Table 20, symbol P); type: in vivo, common chickweed (Stellaria media); conditions: 320 g/ha; for P: chickweed, herbicidal effect grade: three weeks after application
In short: as §4

[22] = foliage application after 14-day growth, evaluated three weeks after application
[23] = application during weed generation under submerged conditions, amount of applied herbicide 320 g/ha
[24] = foliage application, evaluated 3 weeks after application

SMILES	Herbicidal effect, A: late watergrass [1]	Herbicidal effect, B: Japanese bulrush [2]	herbicidal effect rating, B: Japanese bulrush [3]	herbicidal effect rating, C: oval-leafed pondweed [4]	G: green foxtail, herbicidal effect grade [5]	I: wild oat, herbicidal effect grade [6]	J: blackgrass, herbicidal effect grade [7]	K: Italian ryegrass, herbicidal effect grade [8]	M: velvetleaf, herbicidal effect grade [9]	N: redroot pigweed, herbicidal effect grade [10]	O: lambsquarters, herbicidal effect grade [11]	R: persian speedwell, herbicidal effect grade [12]	F: southern crabgrass, herbicidal effect grade ([13]; foliage application)	G: green foxtail, herbicidal effect grade ([14]; foliage application)	H: barnyard grass, herbicidal effect grade ([15]; foliage application)	I: wild oat, herbicidal effect grade ([16]; foliage application)	J: blackgrass, herbicidal effect grade ([17]; foliage application)	K: Italian ryegrass, herbicidal effect grade ([18]; foliage application)	L: windgrass, herbicidal effect grade ([19]; foliage application)	M: velvetleaf, herbicidal effect grade ([20]; foliage application)	further results
COc1ccccc1-c1sc2cc(OC3CCCC3)ccc2c1-c1c(O)c(C)nn(C)c1=O [3-109]	5 (Herbicidal rate of 90% or more (almost completely withered))	5 (Herbicidal rate of 90% or more (almost completely withered))	3 (Herbicidal rate of 40% or more and less than 70%)	2 (Herbicidal rate of 20% or more and less than 40%)	4 (Herbicidal rate of 70% or more and less than 90%)	5 (Herbicidal rate of 90% or more (almost completely withered))	0 (Herbicidal rate of 5% or less (almost no effect))	4 (Herbicidal rate of 70% or more and less than 90%)	5 (Herbicidal rate of 90% or more (almost completely withered))	5 (Herbicidal rate of 90% or more (almost completely withered))	5 (Herbicidal rate of 90% or more (almost completely withered))	4 (Herbicidal rate of 70% or more and less than 90%)	3 (Herbicidal rate of 40% or more and less than 70%)	5 (Herbicidal rate of 90% or more (almost completely withered))	4 (Herbicidal rate of 70% or more and less than 90%)	0 (Herbicidal rate of 5% or less (almost no effect))	2 (Herbicidal rate of 20% or more and less than 40%)	4 (Herbicidal rate of 70% or more and less than 90%)	4 (Herbicidal rate of 70% or more and less than 90%)	4 (Herbicidal rate of 70% or more and less than 90%)	P: chickweed, herbicidal effect grade ([21]; foliage application): 5 (Herbicidal rate of 90% or more (almost completely withered))
CCCC(=O)Oc1c(C)nn(C)c(=O)c1-c1c(-c2ccc(C#N)cc2)sc2c(Cl)cccc12 [4-032]	0 (Herbicidal rate of 5% or less (almost no effect))	2 (Herbicidal rate of 20% or more and less than 40%)	3 (Herbicidal rate of 40% or more and less than 70%)	0 (Herbicidal rate of 5% or less (almost no effect))																	Herbicidal effect by soil treatment, G: green foxtail [5]: 0 (Herbicidal rate of 5% or less (almost no effect)); Herbicidal effect by soil treatment, I: wild oat [6]: 0 (Herbicidal rate of 5% or less (almost no effect)); Herbicidal effect by soil treatment, J: blackgrass [7]: 0 (Herbicidal rate of 5% or less (almost no effect)); Herbicidal effect by soil treatment, K: Italian ryegrass [8]: 0 (Herbicidal rate of 5% or less (almost no effect)); Herbicidal effect by soil treatment, M: velvetleaf [9]: 0 (Herbicidal rate of 5% or less (almost no effect)); Herbicidal effect by soil treatment, N: redroot pigweed [10]: 3 (Herbicidal rate of 40% or more and less than 70%); Herbicidal effect by soil treatment, O: lambsquarters [11]: 0 (Herbicidal rate of 5% or less (almost no effect)); Herbicidal effect by soil treatment, R: persian speedwell [12]: 3 (Herbicidal rate of 40% or more and less than 70%); herbicidal effect on F: southern crabgrass (evaluation grade 0-5) [13, 22]: 0 (Herbicidal rate of 5% or less (almost no effect)); herbicidal effect on G: green foxtail (evaluation grade 0-5) [14, 22]: 0 (Herbicidal rate of 5% or less (almost no effect)); herbicidal effect on H: barnyard grass (evaluation grade 0-5) [15, 22]: 0 (Herbicidal rate of 5% or less (almost no effect)); herbicidal effect on I: wild oat (evaluation grade 0-5) [16, 22]: 0 (Herbicidal rate of 5% or less (almost no effect)); herbicidal effect on J: blackgrass (evaluation grade 0-5) [17, 22]: 0 (Herbicidal rate of 5% or less (almost no effect)); herbicidal effect on K: Italian ryegrass (evaluation grade 0-5) [18, 22]: 0 (Herbicidal rate of 5% or less (almost no effect)); herbicidal effect on L: windgrass (evaluation grade 0-5) [19, 22]: 4 (Herbicidal rate of 70% or more and less than 90%); herbicidal effect on M: velvetleaf (evaluation grade 0-5) [20, 22]: 4 (Herbicidal rate of 70% or more and less than 90%); herbicidal effect on P: chickweed (evaluation grade 0-5) [21, 22]: 5 (Herbicidal rate of 90% or more (almost completely withered))
CCCC(=O)Oc1c(CC)nn(C)c(=O)c1-c1c(-c2ccc(C(F)(F)F)cc2)sc2ccc(F)cc12 [2-411]	3 (Herbicidal rate of 40% or more and less than 70%)	0 (Herbicidal rate of 5% or less (almost no effect))	0 (Herbicidal rate of 5% or less (almost no effect))	0 (Herbicidal rate of 5% or less (almost no effect))									3 (Herbicidal rate of 40% or more and less than 70%)	3 (Herbicidal rate of 40% or more and less than 70%)	3 (Herbicidal rate of 40% or more and less than 70%)	0 (Herbicidal rate of 5% or less (almost no effect))	0 (Herbicidal rate of 5% or less (almost no effect))	0 (Herbicidal rate of 5% or less (almost no effect))	0 (Herbicidal rate of 5% or less (almost no effect))	1 (Herbicidal rate of 5% or more and less than 20%)	herbicidal effect, G: green foxtail [5]: 0 (Herbicidal rate of 5% or less (almost no effect)); herbicidal effect, I: wild oat [6]: 0 (Herbicidal rate of 5% or less (almost no effect)); herbicidal effect, J: blackgrass [7]: 0 (Herbicidal rate of 5% or less (almost no effect)); herbicidal effect, K: Italian ryegrass [8]: 0 (Herbicidal rate of 5% or less (almost no effect)); herbicidal effect, M: velvetleaf [9]: 0 (Herbicidal rate of 5% or less (almost no effect)); herbicidal effect, N: redroot pigweed [10]: 0 (Herbicidal rate of 5% or less (almost no effect)); herbicidal effect, O: lambsquarters [11]: 0 (Herbicidal rate of 5% or less (almost no effect)); herbicidal effect, R: persian speedwell [12]: 2 (Herbicidal rate of 20% or more and less than 40%); P: chickweed, herbicidal effect grade ([21]; foliage application): 5 (Herbicidal rate of 90% or more (almost completely withered))
COCCOc1ccc(-c2oc3ccc(C)cc3c2-c2c(O)c(C)nn(C)c2=O)cc1 [9-063]	5 (Herbicidal rate of 90% or more (almost completely withered))	5 (Herbicidal rate of 90% or more (almost completely withered))			5 (Herbicidal rate of 90% or more (almost completely withered))	0 (Herbicidal rate of 5% or less (almost no effect))	5 (Herbicidal rate of 90% or more (almost completely withered))	5 (Herbicidal rate of 90% or more (almost completely withered))	5 (Herbicidal rate of 90% or more (almost completely withered))	5 (Herbicidal rate of 90% or more (almost completely withered))	5 (Herbicidal rate of 90% or more (almost completely withered))	5 (Herbicidal rate of 90% or more (almost completely withered))									herbicidal effect grade, B: Japanese bulrush [3, 23]: 4 (Herbicidal rate of 70% or more and less than 90%); herbicidal effect grade, C: oval-leafed pondweed [4, 23]: 4 (Herbicidal rate of 70% or more and less than 90%); F (southern crabgrass) herbicidal effect grade [13, 24]: 5 (Herbicidal rate of 90% or more (almost completely withered)); G (green foxtail) herbicidal effect grade [14, 24]: 5 (Herbicidal rate of 90% or more (almost completely withered)); H (barnyard grass) herbicidal effect grade [15, 24]: 5 (Herbicidal rate of 90% or more (almost completely withered)); I (wild oat) herbicidal effect grade [16, 24]: 1 (Herbicidal rate of 5% or more and less than 20%); J (blackgrass) herbicidal effect grade [17, 24]: 5 (Herbicidal rate of 90% or more (almost completely withered)); K (Italian ryegrass) herbicidal effect grade [18, 24]: 5 (Herbicidal rate of 90% or more (almost completely withered)); L (windgrass) herbicidal effect grade [19, 24]: 4 (Herbicidal rate of 70% or more and less than 90%); M (velvetleaf) herbicidal effect grade [20, 24]: 5 (Herbicidal rate of 90% or more (almost completely withered)); P (chickweed) herbicidal effect grade [21, 24]: 5 (Herbicidal rate of 90% or more (almost completely withered))
